In assay [1] the target is T1, AarF domain-containing protein kinase 1 (Homo sapiens, UniProt Q86TW2).
T1 sequence (Q86TW2 whole entry): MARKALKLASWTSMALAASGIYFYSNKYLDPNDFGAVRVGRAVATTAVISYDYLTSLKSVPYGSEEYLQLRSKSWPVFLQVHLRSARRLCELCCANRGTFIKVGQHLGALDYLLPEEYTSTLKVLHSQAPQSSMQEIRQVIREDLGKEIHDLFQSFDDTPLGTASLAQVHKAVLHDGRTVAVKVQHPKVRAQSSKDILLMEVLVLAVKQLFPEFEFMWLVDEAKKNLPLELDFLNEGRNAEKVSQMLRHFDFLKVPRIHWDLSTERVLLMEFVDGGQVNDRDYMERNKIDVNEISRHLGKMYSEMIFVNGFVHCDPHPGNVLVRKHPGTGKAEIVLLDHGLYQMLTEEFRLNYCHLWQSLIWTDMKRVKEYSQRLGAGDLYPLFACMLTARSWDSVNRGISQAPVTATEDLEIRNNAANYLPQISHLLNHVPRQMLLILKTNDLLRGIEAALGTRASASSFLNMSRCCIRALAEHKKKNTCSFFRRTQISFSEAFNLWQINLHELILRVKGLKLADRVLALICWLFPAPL

Assay [2] addresses Cyclin-dependent kinase 3 (Homo sapiens, UniProt Q00526).
The target of another assay is T2, Ephrin type-A receptor 1 (Homo sapiens, UniProt P21709).
T2 sequence (P21709 whole entry): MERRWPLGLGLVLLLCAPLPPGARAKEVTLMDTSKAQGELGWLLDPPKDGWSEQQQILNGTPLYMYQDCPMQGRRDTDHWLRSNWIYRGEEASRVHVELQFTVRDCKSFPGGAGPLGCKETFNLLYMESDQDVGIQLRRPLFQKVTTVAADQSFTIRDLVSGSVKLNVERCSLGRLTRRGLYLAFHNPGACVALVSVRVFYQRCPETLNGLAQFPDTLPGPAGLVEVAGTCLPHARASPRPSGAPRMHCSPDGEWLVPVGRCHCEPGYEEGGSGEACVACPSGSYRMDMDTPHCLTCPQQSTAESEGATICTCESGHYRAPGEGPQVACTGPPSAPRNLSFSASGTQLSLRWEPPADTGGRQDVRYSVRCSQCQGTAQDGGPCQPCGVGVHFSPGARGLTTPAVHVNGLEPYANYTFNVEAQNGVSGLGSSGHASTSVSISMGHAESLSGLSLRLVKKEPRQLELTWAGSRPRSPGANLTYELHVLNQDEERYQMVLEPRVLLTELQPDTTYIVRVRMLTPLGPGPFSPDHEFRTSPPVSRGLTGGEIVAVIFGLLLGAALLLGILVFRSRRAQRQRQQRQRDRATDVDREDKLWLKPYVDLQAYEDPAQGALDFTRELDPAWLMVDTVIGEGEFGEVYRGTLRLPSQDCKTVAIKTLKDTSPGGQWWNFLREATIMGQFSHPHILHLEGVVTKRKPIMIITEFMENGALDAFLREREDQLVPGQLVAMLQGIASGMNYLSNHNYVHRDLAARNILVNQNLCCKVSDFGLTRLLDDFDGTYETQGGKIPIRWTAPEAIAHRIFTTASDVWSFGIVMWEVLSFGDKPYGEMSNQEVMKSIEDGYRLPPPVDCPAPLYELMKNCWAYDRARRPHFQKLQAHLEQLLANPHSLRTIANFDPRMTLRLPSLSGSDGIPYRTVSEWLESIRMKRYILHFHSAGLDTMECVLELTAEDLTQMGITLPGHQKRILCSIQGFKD

Assay [3] addresses DNA topoisomerase 2-alpha (Homo sapiens, UniProt P11388).
Assay [4] concerns the target Casein kinase I isoform alpha (Homo sapiens, UniProt P48729).
Assay [5] deals with Fibroblast growth factor receptor 1 (Homo sapiens, UniProt P11362).
Fibroblast growth factor receptor 1, sequence (P11362 whole entry, canonical isoform): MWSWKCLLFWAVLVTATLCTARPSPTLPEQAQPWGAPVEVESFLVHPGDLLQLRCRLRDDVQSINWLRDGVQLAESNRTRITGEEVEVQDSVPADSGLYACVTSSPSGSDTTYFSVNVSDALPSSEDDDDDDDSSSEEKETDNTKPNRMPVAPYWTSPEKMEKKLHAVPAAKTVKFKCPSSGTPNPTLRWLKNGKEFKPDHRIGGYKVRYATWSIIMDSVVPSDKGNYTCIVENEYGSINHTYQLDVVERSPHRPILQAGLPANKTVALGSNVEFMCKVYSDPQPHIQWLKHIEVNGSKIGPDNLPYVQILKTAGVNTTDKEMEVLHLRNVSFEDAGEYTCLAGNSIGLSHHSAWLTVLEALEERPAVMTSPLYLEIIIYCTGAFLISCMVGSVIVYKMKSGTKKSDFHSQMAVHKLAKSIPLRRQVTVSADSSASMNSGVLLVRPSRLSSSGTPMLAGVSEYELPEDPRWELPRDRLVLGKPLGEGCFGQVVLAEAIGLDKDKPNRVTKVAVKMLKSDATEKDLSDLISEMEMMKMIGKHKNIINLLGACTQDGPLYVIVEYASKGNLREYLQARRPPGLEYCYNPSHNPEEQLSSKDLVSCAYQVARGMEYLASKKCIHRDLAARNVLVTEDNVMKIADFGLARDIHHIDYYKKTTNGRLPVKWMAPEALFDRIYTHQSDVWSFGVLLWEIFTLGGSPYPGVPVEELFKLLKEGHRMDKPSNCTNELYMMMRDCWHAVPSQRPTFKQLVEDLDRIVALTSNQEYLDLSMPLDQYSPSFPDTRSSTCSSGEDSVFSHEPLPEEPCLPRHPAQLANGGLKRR
Assay [6] has as its target T3, Phosphorylase b kinase gamma catalytic chain, liver/testis isoform (Homo sapiens, UniProt P15735).
T3 sequence (P15735 whole entry): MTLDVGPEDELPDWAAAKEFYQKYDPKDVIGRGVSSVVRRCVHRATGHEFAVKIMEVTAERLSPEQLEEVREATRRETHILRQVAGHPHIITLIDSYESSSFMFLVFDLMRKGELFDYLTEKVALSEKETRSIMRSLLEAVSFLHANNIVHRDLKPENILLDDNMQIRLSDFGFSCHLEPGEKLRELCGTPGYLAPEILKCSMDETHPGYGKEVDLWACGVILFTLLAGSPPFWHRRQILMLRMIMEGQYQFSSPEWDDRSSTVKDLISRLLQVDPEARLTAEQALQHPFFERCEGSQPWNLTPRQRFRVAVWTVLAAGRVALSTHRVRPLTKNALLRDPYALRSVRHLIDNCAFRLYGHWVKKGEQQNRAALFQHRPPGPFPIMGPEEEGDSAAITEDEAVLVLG

In assay [7] the target is Ribosomal protein S6 kinase beta-1 (Homo sapiens, UniProt P23443).
Ribosomal protein S6 kinase beta-1, sequence (P23443 whole entry): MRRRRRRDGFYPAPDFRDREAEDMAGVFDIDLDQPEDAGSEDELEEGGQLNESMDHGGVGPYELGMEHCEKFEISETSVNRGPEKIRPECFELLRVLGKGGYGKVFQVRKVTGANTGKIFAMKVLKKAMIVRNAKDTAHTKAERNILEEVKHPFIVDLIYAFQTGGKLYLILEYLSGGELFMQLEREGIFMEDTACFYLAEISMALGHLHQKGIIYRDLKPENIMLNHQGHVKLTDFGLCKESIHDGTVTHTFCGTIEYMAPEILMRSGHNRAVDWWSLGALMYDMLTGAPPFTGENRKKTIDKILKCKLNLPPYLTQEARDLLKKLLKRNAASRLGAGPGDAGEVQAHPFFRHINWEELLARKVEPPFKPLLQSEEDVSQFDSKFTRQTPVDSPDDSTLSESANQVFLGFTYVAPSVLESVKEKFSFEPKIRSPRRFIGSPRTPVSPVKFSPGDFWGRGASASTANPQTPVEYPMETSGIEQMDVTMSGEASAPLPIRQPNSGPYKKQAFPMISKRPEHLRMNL

Consider 22 compounds from ChEMBL document CHEMBL3991601, “The target landscape of clinical kinase drugs” (Science, 2017).

SMILES strings stand for the structures. Calls of active or inactive are those of the source. Rule as the data show it, for most assays here: actives have a measured Kd and inactives only a lower limit.
Also: in the data inactive means no Kd found up to 30 µM.

DNA topoisomerase 2-alpha, sequence (P11388 whole entry, canonical isoform): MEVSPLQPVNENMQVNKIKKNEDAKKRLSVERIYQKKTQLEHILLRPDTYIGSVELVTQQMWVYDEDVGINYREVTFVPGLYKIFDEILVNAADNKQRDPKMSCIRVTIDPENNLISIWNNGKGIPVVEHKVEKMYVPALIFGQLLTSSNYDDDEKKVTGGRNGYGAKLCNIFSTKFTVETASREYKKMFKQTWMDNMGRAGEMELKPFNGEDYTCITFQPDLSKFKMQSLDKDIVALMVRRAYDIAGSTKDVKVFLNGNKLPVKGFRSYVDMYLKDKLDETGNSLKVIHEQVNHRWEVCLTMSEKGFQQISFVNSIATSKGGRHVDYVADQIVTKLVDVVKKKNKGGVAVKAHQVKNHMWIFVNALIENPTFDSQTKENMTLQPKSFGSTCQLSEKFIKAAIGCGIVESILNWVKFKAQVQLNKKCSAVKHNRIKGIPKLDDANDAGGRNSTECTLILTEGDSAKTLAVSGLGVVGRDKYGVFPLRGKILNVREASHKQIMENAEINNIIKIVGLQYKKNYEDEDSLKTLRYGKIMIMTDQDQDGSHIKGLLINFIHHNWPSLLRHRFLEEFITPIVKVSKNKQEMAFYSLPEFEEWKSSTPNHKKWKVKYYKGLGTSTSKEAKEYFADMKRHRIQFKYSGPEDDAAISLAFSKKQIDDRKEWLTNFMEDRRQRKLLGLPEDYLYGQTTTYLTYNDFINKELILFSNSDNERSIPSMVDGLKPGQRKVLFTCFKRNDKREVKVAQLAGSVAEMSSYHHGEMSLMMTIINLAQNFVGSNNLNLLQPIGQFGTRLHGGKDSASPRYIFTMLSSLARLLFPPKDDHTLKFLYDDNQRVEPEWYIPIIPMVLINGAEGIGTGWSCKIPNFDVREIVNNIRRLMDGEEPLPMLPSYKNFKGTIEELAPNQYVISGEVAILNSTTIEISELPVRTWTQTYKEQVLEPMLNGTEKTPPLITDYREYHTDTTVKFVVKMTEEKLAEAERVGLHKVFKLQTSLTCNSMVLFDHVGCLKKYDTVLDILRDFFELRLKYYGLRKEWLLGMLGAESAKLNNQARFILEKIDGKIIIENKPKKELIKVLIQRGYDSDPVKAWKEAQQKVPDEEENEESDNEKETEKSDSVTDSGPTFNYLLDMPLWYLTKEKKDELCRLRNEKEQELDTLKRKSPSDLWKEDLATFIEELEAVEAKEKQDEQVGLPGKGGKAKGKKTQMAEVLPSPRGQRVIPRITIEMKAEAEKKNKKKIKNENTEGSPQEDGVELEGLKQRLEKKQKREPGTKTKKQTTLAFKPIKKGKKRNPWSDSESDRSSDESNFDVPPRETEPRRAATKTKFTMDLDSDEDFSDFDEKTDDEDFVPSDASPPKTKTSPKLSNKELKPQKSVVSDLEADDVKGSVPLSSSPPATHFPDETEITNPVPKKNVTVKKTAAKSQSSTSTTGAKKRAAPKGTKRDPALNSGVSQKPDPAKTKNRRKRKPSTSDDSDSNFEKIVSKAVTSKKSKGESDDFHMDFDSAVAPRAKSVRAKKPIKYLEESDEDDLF
Cyclin-dependent kinase 3, sequence (Q00526 whole entry): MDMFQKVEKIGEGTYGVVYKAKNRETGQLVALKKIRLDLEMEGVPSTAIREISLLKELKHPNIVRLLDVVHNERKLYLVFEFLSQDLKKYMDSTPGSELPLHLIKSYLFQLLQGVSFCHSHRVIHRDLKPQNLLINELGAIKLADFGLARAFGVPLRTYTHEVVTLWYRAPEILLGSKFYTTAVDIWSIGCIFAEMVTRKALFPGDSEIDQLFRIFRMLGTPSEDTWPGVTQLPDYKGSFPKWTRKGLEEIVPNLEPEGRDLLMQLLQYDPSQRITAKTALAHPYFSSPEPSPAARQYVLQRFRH
Casein kinase I isoform alpha, sequence (P48729 whole entry, canonical isoform): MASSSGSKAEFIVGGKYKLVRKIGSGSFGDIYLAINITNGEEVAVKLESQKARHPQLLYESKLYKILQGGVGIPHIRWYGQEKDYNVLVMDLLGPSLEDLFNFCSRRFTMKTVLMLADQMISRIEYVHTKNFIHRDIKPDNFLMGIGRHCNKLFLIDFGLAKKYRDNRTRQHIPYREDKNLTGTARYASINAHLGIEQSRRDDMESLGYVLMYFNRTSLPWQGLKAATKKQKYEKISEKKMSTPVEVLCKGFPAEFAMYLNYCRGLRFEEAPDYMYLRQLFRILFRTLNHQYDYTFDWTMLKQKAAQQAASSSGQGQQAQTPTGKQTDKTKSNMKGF

Consider `COc1cc(Nc2ncc3c(n2)-c2ccc(Cl)cc2C(c2c(F)cccc2OC)=NC3)ccc1C(=O)O` [ALISERTIB], for which the Kd (in assay [1]; in assay [2]; at Ephrin type-A receptor 1; in assay [3]) was > 30 µM (inactive) throughout.

With `Cc1csc(-c2nnc(Nc3ccc(Oc4ncccc4-c4ccnc(N)n4)cc3)c3ccccc23)c1` [AMG-900], the Kd in assay [1], in assay [2], in assay [4], in assay [5], in assay [6] and in assay [7] was > 30 µM (inactive) each time. Further, the Kd in assay [3] is > 30 µM (inactive).

As to `O=C(Nc1c[nH]nc1-c1nc2cc(CN3CCOCC3)ccc2[nH]1)NC1CC1` [AT-9283], the Kd in assay [1] is 0.559 µM (active); in assay [2], > 30 µM (inactive); in assay [4] it was > 30 µM (inactive); in assay [7] it was 0.117 µM (active); in assay [3], > 30 µM (inactive).

For `CNC(=O)c1ccccc1Sc1ccc2c(/C=C/c3ccccn3)n[nH]c2c1` [AXITINIB], the Kd in assay [1] and in assay [3] was > 30 µM (inactive) in each case.

Turning to `Cc1cc(C(=O)NOCCO)c(Nc2ccc(I)cc2F)n(C)c1=O` [AZD-8330], the Kd in assay [1], in assay [2], in assay [4], in assay [5], in assay [6] and in assay [3] was > 30 µM (inactive) throughout.

Turning to `COc1c(OCCCN2CCOCC2)ccc2c1N=C(NC(=O)c1cnc(N)nc1)N1CCN=C21` [COPANLISIB], the Kd in assay [1], in assay [2], in assay [4], in assay [5], in assay [6] and in assay [7] was > 30 µM (inactive) in each case.

For the compound `CC(C)(C)c1nc(-c2cccc(NS(=O)(=O)c3c(F)cccc3F)c2F)c(-c2ccnc(N)n2)s1` [DABRAFENIB], the Kd in assay [1] is > 30 µM (inactive); in assay [4] it was > 30 µM (inactive); on Ephrin type-A receptor 1, 0.705 µM; in assay [5], > 30 µM (inactive); in assay [6], > 30 µM (inactive); in assay [3], > 30 µM (inactive).

In the case of `Cn1cc(C2=C(c3cn(C4CCN(Cc5ccccn5)CC4)c4ccccc34)C(=O)NC2=O)c2ccccc21` [ENZASTAURIN], in assay [1], the Kd is > 30 µM (inactive).

As for `Cc1nc2cc(-n3ncc(C(=O)c4cc5ccccc5[nH]4)c3N)ccc2[nH]1` [FGFR INHIBITOR DEBIO 1347], the Kd (in assay [1]; in assay [2]; in assay [4]; at Ephrin type-A receptor 1; in assay [6]; in assay [3]) was > 30 µM (inactive) in each case.

With `Cc1cccc(-c2nn3c(c2-c2ccnc4ccc(C(N)=O)cc24)CCC3)n1` [GALUNISERTIB], the Kd in assay [1], in assay [2], in assay [5], in assay [6], in assay [7] and in assay [3] was > 30 µM (inactive) in each case.

Turning to `C[C@@H](Oc1cc(-n2cnc3ccc(CN4CCN(C)CC4)cc32)sc1C(N)=O)c1ccccc1C(F)(F)F` [GSK-461364], the Kd in assay [1] and in assay [3] was > 30 µM (inactive) throughout.

As for `CCn1cc(-c2ccnc3[nH]c(-c4cccc(CN(C)C)c4)cc23)c(-c2ccc(NC(=O)N(C)C)cc2)n1` [GSK-1070916], the equilibrium dissociation constant (Kd) in assay [1] was 22.7 µM (active); in assay [2], > 30 µM (inactive); at Ephrin type-A receptor 1, > 30 µM (inactive); in assay [6] it was > 30 µM (inactive); in assay [3], > 30 µM (inactive).

`O=C(Nc1cc(C(F)(F)F)cc(C(F)(F)F)c1)c1cc(Cl)ccc1O` [IMD-0354]: the Kd (in assay [1]; in assay [2]; in assay [4]; at Ephrin type-A receptor 1; in assay [5]; in assay [6]) was > 30 µM (inactive) in each case. In addition, the Kd in assay [3] was > 30 µM (inactive).

With `Cc1[nH]c(/C=C2\C(=O)Nc3ccccc32)c(C)c1CCC(=O)O` [ORANTINIB], the Kd (in assay [1]; in assay [2]; at Ephrin type-A receptor 1; in assay [3]) was > 30 µM (inactive) in each case.

On to `NC(=O)c1c(OCc2c(F)cc(Br)cc2F)nsc1NC(=O)NCCCCN1CCCC1` [OSI-632], for which the Kd in assay [1] was 0.281 µM (active); in assay [2], > 30 µM (inactive); on Ephrin type-A receptor 1 it was > 30 µM (inactive); in assay [3], > 30 µM (inactive).

For the compound `CCCCCCCCCCCCCCCCCCOP(=O)([O-])OC1CC[N+](C)(C)CC1` [PERIFOSINE], the Kd (in assay [1]; in assay [2]; in assay [4]; on Ephrin type-A receptor 1; in assay [5]; in assay [6]) was > 30 µM (inactive) in each case.

On to `Cc1nc(Nc2n[nH]c3c2CN(C(=O)N[C@H](CN(C)C)c2ccccc2)C3(C)C)c2sccc2n1` [PF-03758309], for which the Kd is > 30 µM (inactive) in assay [1]; 63.6 µM (active) in assay [2]; > 30 µM (inactive) in assay [4]; > 30 µM (inactive) at Ephrin type-A receptor 1; 0.208 µM (active) in assay [5]; 0.053 µM (active) in assay [6]. Moreover, the Kd in assay [3] was > 30 µM (inactive).

With `CC(=O)NCC(=O)N1[C@@H]2CC[C@H]1c1ccc(Nc3ncc(C(F)(F)F)c(NC4CCC4)n3)cc12` [PF-03814735], the Kd in assay [1] was > 30 µM (inactive); in assay [2], 1.53 µM (active); on Ephrin type-A receptor 1 it was > 30 µM (inactive).

With `CNC(=O)c1cc(Oc2ccc(NC(=O)Nc3cc(C(C)(C)C)nn3-c3ccc4ncccc4c3)c(F)c2)ccn1` [REBASTINIB], the Kd in assay [1] was > 30 µM (inactive); in assay [2] it was 2.65 µM (active); in assay [4], > 30 µM (inactive); in assay [6], > 30 µM (inactive); in assay [7], > 30 µM (inactive); in assay [3] it was > 30 µM (inactive).

For `O=C(NOCCO)c1cc(CN2OCCCC2=O)c(F)c(F)c1Nc1ccc(I)cc1F` [RO-4987655], the Kd in assay [1] and in assay [3] was > 30 µM (inactive) each time.

For the compound `N#CC[C@H](C1CCCC1)n1cc(-c2ncnc3[nH]ccc23)cn1` [RUXOLITINIB], in assay [1], the Kd was > 30 µM (inactive).

As for `C[C@@H](N)c1ccc(C(=O)Nc2ccnc3[nH]ccc23)cc1` [Y-39983], the Kd (in assay [1]; in assay [2]; at Ephrin type-A receptor 1; in assay [5]; in assay [6]; in assay [3]) was > 30 µM (inactive) in each case.

Broadly, the Kd is the constant that tells how readily two partners part at equilibrium.
